Test results: ChEMBL document CHEMBL1201862, “PubChem BioAssay data set” (2004)
The source made the active and inactive calls. Unless noted, the calls are words filed in the database; no cut-off is given here.

Key:
H4 = assay: Luminescence Cell-Based Dose Response HTS to Identify Activators of 5'UTR Stem-Loop Driven Prion Protein mRNA Translation in H4 Neuroglioblastoma Cells. [Related pubchem assays: 1829 (Project Summary), 1814 (Primary HTS)]; type: functional; settings: Homo sapiens
[1] = Luminescence Cell-Based Dose Confirmation HTS to Identify Activators of 5'UTR Stem-Loop Driven Alpha-Synuclein mRNA Translation in H4 Neuroglioblastoma Cells. [Related pubchem assays: 1829 (Project Summary), 1814 (Primary HTS)]; type: functional
[2] = Luminescence Cell-Based Dose Response HTS to Identify Activators of Luciferase Translation or Activity in H4 […] Cells. [Related pubchem assays: 1829 (Project Summary), 1814 (Primary HTS)]; type: functional
Transthyretin = Transthyretin (Homo sapiens, UniProt P02766); assay: Luminescence-based cell-based high throughput dose response assay to identify activators of Transthyretin (TTR) transcription.; type: functional
Protein skinhead-1 = target: T1, Protein skinhead-1 (Caenorhabditis elegans, UniProt P34707); type: functional
T1 sequence (P34707 whole entry): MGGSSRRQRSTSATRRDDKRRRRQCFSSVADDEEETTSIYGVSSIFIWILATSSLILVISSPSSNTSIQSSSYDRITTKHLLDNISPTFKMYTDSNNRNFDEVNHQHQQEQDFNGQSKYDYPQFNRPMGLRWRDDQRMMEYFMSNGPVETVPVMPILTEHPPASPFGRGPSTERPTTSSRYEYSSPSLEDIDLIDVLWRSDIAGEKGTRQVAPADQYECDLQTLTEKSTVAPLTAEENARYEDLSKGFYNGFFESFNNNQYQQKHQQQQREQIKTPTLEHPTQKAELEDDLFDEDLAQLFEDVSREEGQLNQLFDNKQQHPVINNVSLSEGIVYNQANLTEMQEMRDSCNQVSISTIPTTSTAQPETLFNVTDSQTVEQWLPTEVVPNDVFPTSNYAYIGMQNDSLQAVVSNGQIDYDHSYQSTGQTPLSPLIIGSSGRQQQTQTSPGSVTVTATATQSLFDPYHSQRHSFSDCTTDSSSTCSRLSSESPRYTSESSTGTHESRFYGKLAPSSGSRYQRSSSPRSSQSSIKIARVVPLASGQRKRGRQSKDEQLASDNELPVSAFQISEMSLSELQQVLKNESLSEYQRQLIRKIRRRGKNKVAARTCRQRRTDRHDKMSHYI

[3] = target: T2, Oxysterols receptor LXR-beta (Homo sapiens, UniProt P55055); type: functional, cell-based;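 further: Cell-based luminescence dose-response assay of agonist activity at LXR, run as a confirmatory counterscreen to a daf-12 agonist screen; HEK293 cells with Gal4-LXR fusion and GAL4-driven luciferase reporter; agonist potency from rising luciferase signal of a Gal4-LXR reporter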
T2 sequence (P55055 whole entry): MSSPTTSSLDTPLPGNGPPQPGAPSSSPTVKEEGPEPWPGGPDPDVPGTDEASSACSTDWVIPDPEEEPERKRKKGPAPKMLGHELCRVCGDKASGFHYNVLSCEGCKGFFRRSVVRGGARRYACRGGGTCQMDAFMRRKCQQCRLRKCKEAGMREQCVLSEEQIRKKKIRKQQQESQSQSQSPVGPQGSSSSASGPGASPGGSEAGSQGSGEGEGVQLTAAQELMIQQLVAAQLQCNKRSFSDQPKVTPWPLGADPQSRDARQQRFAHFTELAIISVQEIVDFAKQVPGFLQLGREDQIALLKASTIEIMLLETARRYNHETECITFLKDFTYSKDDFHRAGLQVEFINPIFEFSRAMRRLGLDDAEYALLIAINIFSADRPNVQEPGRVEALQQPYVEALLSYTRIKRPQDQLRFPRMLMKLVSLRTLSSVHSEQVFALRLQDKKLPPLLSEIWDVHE

Kallikrein-7 = Kallikrein-7 (Homo sapiens, UniProt P49862); assay: Fluorescence Intensity-based biochemical primary high throughput dose response assay to identify activators of kallikrein-7 (K7) zymogen.
Sequence of Kallikrein-7 (P49862 whole entry): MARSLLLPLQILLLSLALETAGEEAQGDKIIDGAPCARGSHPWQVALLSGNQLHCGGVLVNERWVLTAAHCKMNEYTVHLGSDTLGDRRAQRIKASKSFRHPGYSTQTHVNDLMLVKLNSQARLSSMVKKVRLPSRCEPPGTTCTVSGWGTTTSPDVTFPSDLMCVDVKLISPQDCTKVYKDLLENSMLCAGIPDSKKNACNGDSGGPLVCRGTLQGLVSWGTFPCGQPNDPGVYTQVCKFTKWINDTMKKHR

[4] = cytotoxicity in HeLa cells, dose response, cytotoxicity control, cell-based, plate reader, dry powder (AID 651946); type: functional
[5] = inhibitors of non-replicating M. tuberculosis, dose response, luciferase, dry powder (AID 651619); type: functional; settings: Mycobacterium tuberculosis
[6] = cytotoxicity in HepG2 cells, dose response, cytotoxicity control, cell-based, plate reader, dry powder (AID 651947); type: functional
[7] = inhibitors of non-replicating M. tuberculosis, dose response, luciferase, dry powder (AID 651620); type: functional; settings: Mycobacterium tuberculosis
[8] = HEK293T cell cytotoxicity, dose response, cytotoxicity control, CellTiter-Glo luminescence, dry powder, set 20 (AID 1117293); type: functional, cell-based; settings: HEK293
[9] = P. falciparum Dd2 growth inhibitors, dose response, SYBR Green, dry powder samples, set 9 (AID 1159568); type: functional, cell-based
[10] = inhibitors of orthopox intermediate gene expression, dose response, cell-based, single fluorophore reporter, dry powder (AID 1117271); type: functional
[11] = Single fluorophore orthopox expression reporter, late gene expression Measured in Cell-Based and Microorganism Combination System Using Plate Reader - 2142-08_Inhibitor_Dose_DryPowder_Activity.; type: functional
[12] = A549 cell cytotoxicity, dose response, CellTiter-Glo luminescence, dry powder, set 17 (AID 1117284); type: functional, cell-based
[13] = Orthopox viral replication plaque formation Measured in Cell-Based and Microorganism Combination System Using Imaging - 2142-05_Inhibitor_Dose_DryPowder_Activity.; type: functional
[14] = target: RNA-editing ligase 1, mitochondrial (Trypanosoma brucei brucei, UniProt P86926); assay: TbREL1 ligase inhibitors, dose response, biochemical, fluorescence, Trypanosoma brucei (AID 1117295); type: functional
Sequence of RNA-editing ligase 1, mitochondrial (P86926 whole entry): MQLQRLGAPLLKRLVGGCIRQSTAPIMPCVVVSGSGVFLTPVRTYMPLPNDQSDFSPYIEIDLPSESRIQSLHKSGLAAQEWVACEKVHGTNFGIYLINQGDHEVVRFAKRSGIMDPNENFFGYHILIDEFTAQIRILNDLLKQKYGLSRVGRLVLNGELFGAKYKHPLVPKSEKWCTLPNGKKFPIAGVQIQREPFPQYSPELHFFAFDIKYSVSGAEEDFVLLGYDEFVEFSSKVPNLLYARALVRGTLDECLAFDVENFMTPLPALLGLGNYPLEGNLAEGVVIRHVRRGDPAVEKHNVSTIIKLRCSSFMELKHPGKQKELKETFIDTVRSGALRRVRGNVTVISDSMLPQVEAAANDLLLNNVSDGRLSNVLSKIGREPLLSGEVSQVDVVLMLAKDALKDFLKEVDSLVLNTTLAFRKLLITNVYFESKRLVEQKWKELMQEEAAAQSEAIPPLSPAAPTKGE

## Cc1c(Br)c(C(=O)N2CCc3ccccc32)nn1C
H4
  EC50: 99.2 µM (active)
[1]
  EC50: 11.7 µM (active)
[2]
  EC50: 6.16 µM (active)
Transthyretin
  EC50: > 167 µM (inactive)

## CNc1ccc(C=C2C=Cc3ccccc32)cc1
cells
  EC50: > 67.6 µM (inactive)
Protein skinhead-1
  IC50: 20.5 µM (active)
[3]
  EC50: > 67.6 µM (inactive)

## COC(=O)c1ccc(N2C(c3cc(OC)cc(OC)c3)=Cc3ccc(-c4ccc(C(N)=O)cc4)cc3C2CC(=O)C2CC2)cc1 (centres undefined)
Kallikrein-7
  EC50: > 7.72 µM (active)

## c1ccc(Sc2nnc(-c3ccccc3)o2)cc1
[4]
  AC50: > 52 µM (inactive)
[5]
  IC90: 1 µM (active)
[6]
  AC50: 42.9 µM (active)
[7]
  IC90: 1 µM (active)

## O=S(=O)(Nc1cc(C(F)(F)F)ccc1N1CCCCC1)c1ccc(-c2ccccc2)cc1
[8]
  AC50: 852 nM (active)

## O=C(Nc1ccccc1F)N1CCCCN2[C@H](C1)[C@H](c1ccc(/C=C/c3ccccc3)cc1)[C@@H]2CO
[9]
  AC50: 3.61 µM (active)

## Cc1ccc(-c2ccc(CN(C)C[C@@H]3Oc4cc(C#C[C@@H](C)O)ccc4S(=O)(=O)N([C@@H](C)CO)C[C@@H]3C)cc2)cc1
[10]
  AC50: 1.95 µM (active)
[11]
  AC50: 1.13 µM (active)
[12]
  AC50: > 52 µM (inactive)
[13]
  AC50: 1.76 µM (active)

## COC(=O)C1=C(C)N(Cc2ccc(C(F)(F)F)cc2)C(NCc2ccc(OC)cc2)=NC1c1ccccc1C(F)(F)F (centres undefined)
[14]
  IC50: > 96.6 µM (inactive)
